Several values for one entry are separate records, joined by “and”; a condition that tells them apart may be missing. Equal values may be shown once. Inconclusive results and toxic doses are left out. Rule for the calls: active = survival T/C of 150% or more; inactive = T/C below 125% in these data.
Tested on: P388 leukemia ip, CD2F1 mice, survival T/C
Assay: NCI In Vivo Anticancer Drug Screen. Data for tumor model P388 Leukemia (intraperitoneal) in CD2F1 (CDF1) mice
Details: endpoint: median survival time, higher = longer survival
Method in brief: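 Mice carrying the transplanted tumor received test compound or vehicle. Survival was recorded in each group, and the value is the treated-group measurement divided by that of the vehicle-treated control group.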

[1] = dose: 100.0 mg/kg/injection, schedule: Q01DX001 (ip), vehicle: Klucel (hydroxypropylcellulose) (HPC)
[2] = dose: 200.0 mg/kg/injection, schedule: Q01DX001 (ip), vehicle: Klucel (hydroxypropylcellulose) (HPC)
[3] = dose: 400.0 mg/kg/injection, schedule: Q01DX001 (ip), vehicle: Klucel (hydroxypropylcellulose) (HPC)
[4] = dose: 50.0 mg/kg/injection, schedule: Q01DX005 (ip), vehicle: Klucel (hydroxypropylcellulose) (HPC)
[5] = dose: 100.0 mg/kg/injection, schedule: Q01DX005 (ip), vehicle: Klucel (hydroxypropylcellulose) (HPC)
[6] = dose: 200.0 mg/kg/injection, schedule: Q01DX005 (ip), vehicle: Klucel (hydroxypropylcellulose) (HPC)
[7] = dose: 100.0 mg/kg/injection, schedule: Q04DX003 (ip), vehicle: saline with Tween-80
[8] = dose: 60.0 mg/kg/injection, schedule: Q01DX005 (ip), vehicle: Klucel (hydroxypropylcellulose) (HPC)
[9] = dose: 120.0 mg/kg/injection, schedule: Q01DX005 (ip), vehicle: Klucel (hydroxypropylcellulose) (HPC)
[10] = dose: 240.0 mg/kg/injection, schedule: Q01DX005 (ip), vehicle: Klucel (hydroxypropylcellulose) (HPC)
[11] = dose: 50.0 mg/kg/injection, schedule: Q01DX009 (ip), vehicle: saline

Measured: T/C

Cn1c(Br)c(C=O)c2ccccc21
inactive: [1] 100 % of control | [2] 102 % of control | [3] 105 % of control

Nc1nnc2cc(Cl)ccc2n1
inactive: dose: 25.0 mg/kg/injection, schedule: Q01DX005 (ip), vehicle: Klucel (hydroxypropylcellulose) (HPC) 98 % of control | [4] 96 % of control | [5] 98 % of control | [6] 98 % of control

CCOP1(OCC)(SSC)OC(=O)C(C)S1 (stereo not given)
inactive: dose: 5.0 mg/kg/injection, schedule: Q01DX005 (ip), vehicle: saline with Tween-80 108 % of control | dose: 10.0 mg/kg/injection, schedule: Q01DX005 (ip), vehicle: saline with Tween-80 101 % of control | dose: 20.0 mg/kg/injection, schedule: Q01DX005 (ip), vehicle: saline with Tween-80 108 % of control | dose: 60.0 mg/kg/injection, schedule: Q01DX005 (ip), vehicle: saline with Tween-80 94 % of control

CCOC(=O)C(/N=N\c1nn[nH]n1)/N=N/c1ncn[nH]1 (stereo not given)
inactive: dose: 100.0 mg/kg/injection, schedule: Q01DX001 (ip), vehicle: suspension in saline 102 % of control | dose: 200.0 mg/kg/injection, schedule: Q01DX001 (ip), vehicle: suspension in saline 102 % of control | dose: 400.0 mg/kg/injection, schedule: Q01DX001 (ip), vehicle: suspension in saline 107 % of control

Nc1cc2c(c[n+](CCCBr)c3ccccc23)c2ccccc12
inactive: dose: 1.56 mg/kg/injection, schedule: Q04DX003 (ip), vehicle: other 118 % of control | dose: 3.13 mg/kg/injection, schedule: Q04DX003 (ip), vehicle: other 118 % of control | dose: 6.25 mg/kg/injection, schedule: Q04DX003 (ip), vehicle: other 122 % of control

NC(=S)c1cncnc1N
inactive: dose: 25.0 mg/kg/injection, schedule: Q04DX003 (ip), vehicle: saline with Tween-80 102 % of control | dose: 50.0 mg/kg/injection, schedule: Q04DX003 (ip), vehicle: saline with Tween-80 99 % of control | [7] 104 % of control

CCC1(C(=O)Sc2ccccc2)OC1c1ccccc1 (stereo not given)
inactive: [1] 89 % of control | [2] 90 % of control | [3] 90 % of control

COC(=O)c1cc(O)c(O)c(O)c1
inactive: dose: 50.0 mg/kg/injection, schedule: Q01DX005 (ip), vehicle: saline with Tween-80 105 % of control | dose: 100.0 mg/kg/injection, schedule: Q01DX005 (ip), vehicle: saline with Tween-80 108 % of control | dose: 200.0 mg/kg/injection, schedule: Q01DX005 (ip), vehicle: saline with Tween-80 119 % of control

CC(=O)O[C@@H]1[C@@H](O)C2=C3[C@]4(C)[C@@H]1C(C)(C)C(=O)C[C@@H]4[C@]3(O)[C@H](OC(C)=O)[C@@]1(C[C@@H]1C)C2=O
inactive: dose: 25.0 mg/kg/injection, schedule: Q01DX009 (ip), vehicle: other 118 % of control | dose: 25.0 mg/kg/injection, schedule: Q01DX009 (ip), vehicle: saline with Tween-80 115 % of control

CC(C)C1=CC23CCC4C(C)(C(=O)O)CCCC4(C)C2CC1C(C(=O)NCCCN(C)C)C3C(=O)O (stereo not given)
inactive: [8] 95 % of control | [9] 95 % of control | [10] 93 % of control

NC(=O)C(C(N)=O)=C1C(=O)c2ccccc2C1=O
inactive: [8] 95 % of control | [9] 100 % of control | [10] 99 % of control

O=C(OC1C2CCC2C2CC21)c1ccc([N+](=O)[O-])cc1[N+](=O)[O-] (stereo not given)
inactive: [11] 105 % of control | dose: 100.0 mg/kg/injection, schedule: Q01DX009 (ip), vehicle: saline 99 % of control and 92 % of control | dose: 200.0 mg/kg/injection, schedule: Q01DX009 (ip), vehicle: saline 92 % of control and 93 % of control

Cc1ccc(N2C(=O)CSC2=S)cc1Br
inactive: dose: 50.0 mg/kg/injection, schedule: Q01DX009 (ip), vehicle: suspension in saline 93 % of control | dose: 100.0 mg/kg/injection, schedule: Q01DX009 (ip), vehicle: suspension in saline 105 % of control | dose: 200.0 mg/kg/injection, schedule: Q01DX009 (ip), vehicle: suspension in saline 93 % of control

CN=C(NC)NCCSCc1ccc2ccccc2n1
inactive: dose: 12.5 mg/kg/injection, schedule: Q01DX005 (ip), vehicle: saline 115 % of control | dose: 25.0 mg/kg/injection, schedule: Q01DX005 (ip), vehicle: saline 118 % of control | dose: 50.0 mg/kg/injection, schedule: Q01DX005 (ip), vehicle: saline 102 % of control and 112 % of control

COc1ccc(OC)c2cc3c(cc12)C(=O)C(C)=C(C)C3=O
inactive: [4] 89 % of control | [5] 86 % of control | [6] 88 % of control

[Cl][Sn][Cl].c1cnc2c(c1)ccc1cccnc12
inactive: [7] 97 % of control | dose: 200.0 mg/kg/injection, schedule: Q04DX003 (ip), vehicle: saline with Tween-80 112 % of control

CC1=CC(=O)N(NC(N)=O)C1=O
inactive: dose: 6.25 mg/kg/injection, schedule: Q01DX009 (ip), vehicle: saline 102 % of control and 110 % of control | dose: 12.5 mg/kg/injection, schedule: Q01DX009 (ip), vehicle: saline 105 % of control and 108 % of control | dose: 25.0 mg/kg/injection, schedule: Q01DX009 (ip), vehicle: saline 110 % of control and 123 % of control | [11] 109 % of control and 122 % of control

C[n+]1c(/C=C2/SC=C(c3ccccc3)S2)ccc2ccccc21
inactive: dose: 0.78 mg/kg/injection, schedule: Q04DX002 (ip), vehicle: saline with Tween-80 102 % of control and 119 % of control | dose: 1.56 mg/kg/injection, schedule: Q04DX002 (ip), vehicle: saline with Tween-80 109 % of control and 123 % of control | dose: 3.12 mg/kg/injection, schedule: Q04DX002 (ip), vehicle: saline with Tween-80 119 % of control

C[N+](C)(C)N=P(O)(N[N+](C)(C)C)c1ccccc1 (stereo not given)
inactive: dose: 60.0 mg/kg/injection, schedule: Q01DX005 (ip), vehicle: saline 104 % of control | dose: 120.0 mg/kg/injection, schedule: Q01DX005 (ip), vehicle: saline 104 % of control | dose: 240.0 mg/kg/injection, schedule: Q01DX005 (ip), vehicle: saline 103 % of control

CCOC(=O)c1c(N)sc2c1CCC2
inactive: dose: 100.0 mg/kg/injection, schedule: Q01DX001 (ip), vehicle: saline sonified 100 % of control | dose: 200.0 mg/kg/injection, schedule: Q01DX001 (ip), vehicle: saline sonified 95 % of control | dose: 400.0 mg/kg/injection, schedule: Q01DX001 (ip), vehicle: saline sonified 100 % of control

C[N+](C)(C)CN1C(=O)c2ccccc2C1=O
inactive: dose: 50.0 mg/kg/injection, schedule: Q04DX003 (ip), vehicle: saline 100 % of control | dose: 100.0 mg/kg/injection, schedule: Q04DX003 (ip), vehicle: saline 104 % of control | dose: 200.0 mg/kg/injection, schedule: Q04DX003 (ip), vehicle: saline 95 % of control

O=C(NC1CCCCC1)O/N=C/c1cccnc1
inactive: dose: 50.0 mg/kg/injection, schedule: Q01DX009 (ip), vehicle: saline with Tween-80 101 % of control | dose: 100.0 mg/kg/injection, schedule: Q01DX009 (ip), vehicle: saline with Tween-80 98 % of control | dose: 200.0 mg/kg/injection, schedule: Q01DX009 (ip), vehicle: saline with Tween-80 93 % of control

CCCCCCCCCCCCOC(=O)C(N)Cc1ccc(O)cc1 (stereo not given)
inactive: dose: 50.0 mg/kg/injection, schedule: Q01DX009 (ip), vehicle: Klucel (hydroxypropylcellulose) (HPC) 98 % of control | dose: 100.0 mg/kg/injection, schedule: Q01DX009 (ip), vehicle: Klucel (hydroxypropylcellulose) (HPC) 102 % of control | dose: 200.0 mg/kg/injection, schedule: Q01DX009 (ip), vehicle: Klucel (hydroxypropylcellulose) (HPC) 97 % of control

From PubChem BioAssay AID330 (DTP/NCI, 2004)
